IC50 and Ki data for nine molecules are collected here from ChEMBL document CHEMBL1909046, “DrugMatrix in vitro pharmacology data”.

SMILES strings stand for the structures.

One may read the IC50 as the point on the concentration scale where inhibition reaches its midpoint. One may read the Ki as a measure of affinity in units of concentration, obtained from inhibition or displacement.

Assay [1] concerns the target Vascular endothelial growth factor receptor 1 (Homo sapiens, UniProt P17948). It is filed as cell-based. Conditions: huvec. Also: in other assays of this panel Not Active means under 50% inhibition at 10 µM.
In assay [2] the target is Mitogen-activated protein kinase 14 (Homo sapiens, UniProt Q16539). Set-up: species or system Escherichia coli.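 Also: inhibition of p38alpha enzyme activity in a biochemical kinase assay, with myelin basic protein serving as substrate; in other assays of this panel Not Active means under 50% inhibition at 10 µM.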
Chain of Mitogen-activated protein kinase 14 (Q16539 whole entry): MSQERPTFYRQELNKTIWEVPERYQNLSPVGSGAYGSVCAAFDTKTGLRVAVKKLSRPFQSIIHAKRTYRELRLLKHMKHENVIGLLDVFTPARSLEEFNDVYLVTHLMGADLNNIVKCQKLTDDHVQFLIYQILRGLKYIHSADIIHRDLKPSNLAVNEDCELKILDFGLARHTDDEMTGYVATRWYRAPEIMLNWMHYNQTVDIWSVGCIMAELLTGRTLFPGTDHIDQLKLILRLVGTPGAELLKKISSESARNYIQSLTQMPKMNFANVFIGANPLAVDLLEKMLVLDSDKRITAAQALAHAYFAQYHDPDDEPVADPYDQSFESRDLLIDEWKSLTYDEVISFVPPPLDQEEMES
Assay [3] has as its target T1, 3-hydroxy-3-methylglutaryl-coenzyme A reductase (Homo sapiens, UniProt P04035).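 Also: enzyme inhibition assay of HMG-CoA reductase using radiolabeled [14C]HMG-CoA as substrate; in other assays of this panel Not Active means under 50% inhibition at 10 µM.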
T1 sequence (P04035 whole entry): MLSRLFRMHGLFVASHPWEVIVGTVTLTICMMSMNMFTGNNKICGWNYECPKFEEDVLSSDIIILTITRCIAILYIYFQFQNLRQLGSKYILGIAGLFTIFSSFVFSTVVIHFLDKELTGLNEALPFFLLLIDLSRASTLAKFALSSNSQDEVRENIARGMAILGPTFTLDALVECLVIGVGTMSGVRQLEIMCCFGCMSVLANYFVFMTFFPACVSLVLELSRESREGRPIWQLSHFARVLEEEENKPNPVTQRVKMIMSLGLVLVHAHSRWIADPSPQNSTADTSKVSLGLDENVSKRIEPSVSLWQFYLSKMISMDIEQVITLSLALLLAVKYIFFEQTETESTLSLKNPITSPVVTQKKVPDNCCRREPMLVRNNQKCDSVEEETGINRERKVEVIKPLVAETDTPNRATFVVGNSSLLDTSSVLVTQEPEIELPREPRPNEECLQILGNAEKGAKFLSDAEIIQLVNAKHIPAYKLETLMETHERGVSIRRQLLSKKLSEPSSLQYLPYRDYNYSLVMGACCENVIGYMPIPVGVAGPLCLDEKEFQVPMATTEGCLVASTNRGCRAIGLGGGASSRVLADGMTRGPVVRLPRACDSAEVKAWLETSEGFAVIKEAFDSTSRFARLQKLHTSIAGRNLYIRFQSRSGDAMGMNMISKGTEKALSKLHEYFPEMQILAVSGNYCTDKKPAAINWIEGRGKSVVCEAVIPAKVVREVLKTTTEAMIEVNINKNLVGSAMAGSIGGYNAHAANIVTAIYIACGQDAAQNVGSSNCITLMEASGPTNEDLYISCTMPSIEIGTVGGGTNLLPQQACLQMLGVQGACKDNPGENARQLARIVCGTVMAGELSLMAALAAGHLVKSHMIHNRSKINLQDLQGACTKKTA
Set-up: species or system Escherichia coli.

The nature of assay [4]: DRUGMATRIX: GABAA, Flunitrazepam, Central radioligand binding (ligand: [3H] Flunitrazepam). It is filed as cell membranes, Rattus norvegicus, Wistar, Brain, Membrane. The conditions noted are these: Not Active = under 50% inhibition at 10 µM.
A further assay addresses T2, Caspase-1 (Homo sapiens, UniProt P29466).
T2 sequence (P29466 whole entry): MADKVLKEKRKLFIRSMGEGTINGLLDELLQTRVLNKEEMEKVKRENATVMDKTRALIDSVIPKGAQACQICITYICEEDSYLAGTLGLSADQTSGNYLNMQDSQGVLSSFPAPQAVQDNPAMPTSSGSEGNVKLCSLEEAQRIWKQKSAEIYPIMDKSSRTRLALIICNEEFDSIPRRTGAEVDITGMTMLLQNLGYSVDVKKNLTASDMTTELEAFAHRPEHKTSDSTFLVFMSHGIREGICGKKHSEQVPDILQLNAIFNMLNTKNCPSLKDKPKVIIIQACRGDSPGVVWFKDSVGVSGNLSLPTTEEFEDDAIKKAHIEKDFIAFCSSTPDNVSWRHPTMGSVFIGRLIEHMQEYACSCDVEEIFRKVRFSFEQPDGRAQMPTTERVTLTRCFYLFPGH
Set-up: species or system Escherichia coli.

Assay [5] has as its target Kappa-type opioid receptor (Homo sapiens, UniProt P41145). In words: DRUGMATRIX: Opiate kappa (OP2, KOP) radioligand binding (ligand: [3H] Diprenorphine). Conditions: hek293; Not Active = under 50% inhibition at 10 µM. The format is cell membranes, HEK293, Membrane.
The target of assay [6] is T3, Muscarinic acetylcholine receptor M5 (Homo sapiens, UniProt P08912). Also: in other assays of this panel Not Active means under 50% inhibition at 10 µM.
T3 sequence (P08912 whole entry): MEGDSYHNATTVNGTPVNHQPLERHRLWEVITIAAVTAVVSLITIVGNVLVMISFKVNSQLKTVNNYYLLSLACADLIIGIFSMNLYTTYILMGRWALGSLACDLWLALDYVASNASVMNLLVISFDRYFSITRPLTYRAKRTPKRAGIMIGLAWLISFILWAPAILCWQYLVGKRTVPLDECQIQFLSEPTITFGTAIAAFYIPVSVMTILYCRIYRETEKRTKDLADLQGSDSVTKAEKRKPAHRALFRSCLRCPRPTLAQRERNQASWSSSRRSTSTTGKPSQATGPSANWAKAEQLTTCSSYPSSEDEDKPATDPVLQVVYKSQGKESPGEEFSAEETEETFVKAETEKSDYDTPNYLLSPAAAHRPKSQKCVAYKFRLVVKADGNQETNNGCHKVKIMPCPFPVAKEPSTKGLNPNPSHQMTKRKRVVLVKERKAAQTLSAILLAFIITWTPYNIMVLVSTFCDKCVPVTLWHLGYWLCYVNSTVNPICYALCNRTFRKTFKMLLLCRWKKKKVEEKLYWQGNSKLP
It is filed as cell membranes, CHO-K1, Membrane.

The nature of assay [7]: DRUGMATRIX: Sodium/nucleoside co-transporter radioligand binding (ligand: nitrobenzylthioinosine). The format is cell membranes, Cavia porcellus, Dunkin-Hartley, Cerebral cortex, Membrane. Conditions: Not Active = under 50% inhibition at 10 µM.
Assay [8] deals with T4, Muscarinic acetylcholine receptor M2 (Homo sapiens, UniProt P08172).
T4 sequence (P08172 whole entry): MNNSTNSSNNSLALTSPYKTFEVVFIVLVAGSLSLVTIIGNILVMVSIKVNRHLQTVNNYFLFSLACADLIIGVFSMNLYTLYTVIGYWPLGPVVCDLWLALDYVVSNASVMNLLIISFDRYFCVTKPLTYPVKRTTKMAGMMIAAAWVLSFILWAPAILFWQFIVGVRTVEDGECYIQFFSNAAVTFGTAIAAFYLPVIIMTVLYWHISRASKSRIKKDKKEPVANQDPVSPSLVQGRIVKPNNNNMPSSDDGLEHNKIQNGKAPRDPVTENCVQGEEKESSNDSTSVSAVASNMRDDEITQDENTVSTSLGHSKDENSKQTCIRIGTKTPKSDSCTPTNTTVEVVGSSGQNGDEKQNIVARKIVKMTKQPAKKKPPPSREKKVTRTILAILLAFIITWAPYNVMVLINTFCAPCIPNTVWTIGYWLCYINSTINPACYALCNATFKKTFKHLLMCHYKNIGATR
It is filed as cell membranes, CHO-K1, Membrane.

Another assay addresses Vasopressin V1a receptor (Homo sapiens, UniProt P37288). The format is cell membranes, Membrane. Conditions: hek293.

Chain of Vascular endothelial growth factor receptor 1 (P17948 whole entry): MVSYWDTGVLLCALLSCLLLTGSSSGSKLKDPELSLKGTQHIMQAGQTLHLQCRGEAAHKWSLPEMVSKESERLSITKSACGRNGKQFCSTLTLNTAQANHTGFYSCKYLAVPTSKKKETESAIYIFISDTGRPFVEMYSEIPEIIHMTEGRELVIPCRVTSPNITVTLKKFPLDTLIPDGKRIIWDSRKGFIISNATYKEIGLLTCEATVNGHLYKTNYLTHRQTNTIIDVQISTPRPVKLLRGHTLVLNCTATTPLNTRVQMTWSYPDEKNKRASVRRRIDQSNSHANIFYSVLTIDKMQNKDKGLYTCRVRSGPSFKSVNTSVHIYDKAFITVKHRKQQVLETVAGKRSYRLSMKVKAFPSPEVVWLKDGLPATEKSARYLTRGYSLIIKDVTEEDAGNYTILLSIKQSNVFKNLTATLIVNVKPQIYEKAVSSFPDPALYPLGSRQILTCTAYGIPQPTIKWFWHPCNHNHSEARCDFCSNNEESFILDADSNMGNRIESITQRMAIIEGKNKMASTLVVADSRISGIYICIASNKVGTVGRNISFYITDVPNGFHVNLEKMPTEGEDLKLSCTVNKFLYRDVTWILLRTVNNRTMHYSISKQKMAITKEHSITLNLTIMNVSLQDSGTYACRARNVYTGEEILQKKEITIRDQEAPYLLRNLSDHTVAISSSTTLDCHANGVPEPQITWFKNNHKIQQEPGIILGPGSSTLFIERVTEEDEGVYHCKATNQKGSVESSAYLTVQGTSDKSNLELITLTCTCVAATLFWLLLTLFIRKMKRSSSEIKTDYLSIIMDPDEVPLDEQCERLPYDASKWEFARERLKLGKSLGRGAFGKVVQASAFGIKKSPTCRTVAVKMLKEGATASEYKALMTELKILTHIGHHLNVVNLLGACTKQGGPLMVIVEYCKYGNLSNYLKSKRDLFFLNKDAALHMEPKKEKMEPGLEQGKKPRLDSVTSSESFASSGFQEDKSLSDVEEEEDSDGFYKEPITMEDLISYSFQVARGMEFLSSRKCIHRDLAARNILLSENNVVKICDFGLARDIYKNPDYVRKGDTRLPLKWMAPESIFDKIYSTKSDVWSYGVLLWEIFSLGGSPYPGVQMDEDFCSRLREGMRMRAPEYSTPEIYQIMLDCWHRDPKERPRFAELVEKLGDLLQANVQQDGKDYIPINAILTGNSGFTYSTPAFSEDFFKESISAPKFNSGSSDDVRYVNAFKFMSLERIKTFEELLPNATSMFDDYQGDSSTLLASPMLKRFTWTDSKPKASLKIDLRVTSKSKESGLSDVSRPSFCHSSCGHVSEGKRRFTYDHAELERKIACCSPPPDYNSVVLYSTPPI
Chain of Kappa-type opioid receptor (P41145 whole entry): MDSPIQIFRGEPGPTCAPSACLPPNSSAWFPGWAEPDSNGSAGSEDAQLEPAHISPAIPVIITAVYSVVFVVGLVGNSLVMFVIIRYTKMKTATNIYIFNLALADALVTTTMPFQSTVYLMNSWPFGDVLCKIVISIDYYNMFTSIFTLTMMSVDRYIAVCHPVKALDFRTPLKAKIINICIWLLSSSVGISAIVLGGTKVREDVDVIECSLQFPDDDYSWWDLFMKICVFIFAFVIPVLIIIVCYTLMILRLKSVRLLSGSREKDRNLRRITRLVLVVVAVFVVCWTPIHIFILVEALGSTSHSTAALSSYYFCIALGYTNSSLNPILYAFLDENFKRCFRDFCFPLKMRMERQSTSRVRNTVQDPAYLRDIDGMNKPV
Chain of Vasopressin V1a receptor (P37288 whole entry): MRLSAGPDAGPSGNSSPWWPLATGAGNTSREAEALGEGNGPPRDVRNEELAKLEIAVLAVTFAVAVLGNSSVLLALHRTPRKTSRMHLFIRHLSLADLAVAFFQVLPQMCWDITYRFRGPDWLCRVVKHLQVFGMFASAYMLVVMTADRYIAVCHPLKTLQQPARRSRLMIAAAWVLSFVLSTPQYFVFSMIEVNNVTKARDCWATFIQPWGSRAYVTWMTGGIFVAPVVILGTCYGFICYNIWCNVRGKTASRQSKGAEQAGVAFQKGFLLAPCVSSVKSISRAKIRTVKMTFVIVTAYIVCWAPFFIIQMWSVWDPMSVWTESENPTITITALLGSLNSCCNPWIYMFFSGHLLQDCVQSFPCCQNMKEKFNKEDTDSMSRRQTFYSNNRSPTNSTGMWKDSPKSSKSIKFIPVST

Consider `CNCCC=C1c2ccccc2CCc2ccccc21` [NORTRIPTYLINE], for which the 50% inhibitory concentration (IC50) entry (in assay [1]; in assay [2]; in [3]; in [4]; on Caspase-1; in assay [5]) was “Not Active” in each case. For the same molecule, the IC50 in [6] (read-out: IC50) was 0.027 µM; in assay [7], “Not Active”; in [8] (read-out: IC50), 0.347 µM; against Vasopressin V1a receptor it was “Not Active”. Also, the Ki result is “Not Active” in [4], 0.02 µM in assay [6] (read-out: Ki), “Not Active” in assay [7] and 0.123 µM in [8] (read-out: Ki).
For `CC1COc2c(N3CCN(C)CC3)c(F)cc3c(=O)c(C(=O)O)cn1c23` (stereo not given) [OFLOXACIN], the IC50 result (in [1]; in [2]; in assay [3]; in assay [4]; at Caspase-1; in [5]) was “Not Active” in each case. The IC50 entry (in assay [6] (cho-k1); in assay [7]; in assay [8] (cho-k1); on Vasopressin V1a receptor) was “Not Active” each time. The Ki result in assay [4] and in assay [7] was “Not Active” each time.
With `Oc1cccc2cccnc12` [OXYQUINOLINE], the IC50 entry (in [1]; in assay [2]; in assay [3]; in assay [4]; against Caspase-1; in assay [5]) was “Not Active” each time. Besides, the IC50 entry (in assay [6] (cho-k1); in assay [7]; in [8] (cho-k1); against Vasopressin V1a receptor) was “Not Active” each time. In addition, the Ki entry in [4] and in [7] was “Not Active” in each case.
Regarding `CN(C)[C@@H]1C(O)=C(C(N)=O)C(=O)[C@@]2(O)C(O)=C3C(=O)c4c(O)cccc4[C@@](C)(O)[C@H]3[C@H](O)[C@@H]12` [OXYTETRACYCLINE], the 50% inhibitory concentration (IC50) entry (in assay [1]; in assay [2]; in assay [3]; in [4]; against Caspase-1; in assay [5]) was “Not Active” throughout. Moreover, the IC50 result (in assay [6] (cho-k1); in [7]; in assay [8] (cho-k1); on Vasopressin V1a receptor) was “Not Active” throughout. Further, the Ki result in [4] and in assay [7] was “Not Active” in each case.
For the molecule `CC(C)(S)[C@@H](N)C(=O)O` [PENICILLAMINE], the concentration for half-maximal inhibition (IC50) entry (in [1]; in assay [2]; in assay [3]; in assay [4]; on Caspase-1; in [5]) was “Not Active” in each case. Further, the IC50 result (in assay [6] (cho-k1); in assay [7]; in assay [8] (cho-k1); against Vasopressin V1a receptor) was “Not Active” throughout. Besides, the Ki entry in assay [4] and in assay [7] was “Not Active” in each case.
Consider `CC(=O)CCCCn1c(=O)c2c(ncn2C)n(C)c1=O` [PENTOXIFYLLINE], for which the IC50 entry (in [1]; in [2]; in assay [3]; in [4]; against Caspase-1; in [5]) was “Not Active” each time. For the same molecule, the IC50 result (in assay [6] (cho-k1); in assay [7]; in assay [8] (cho-k1); against Vasopressin V1a receptor) was “Not Active” in each case. Besides, the Ki entry in assay [4] and in assay [7] was “Not Active” in each case.
In the case of `O=C1NC(=O)C(c2ccccc2)(c2ccccc2)N1` [PHENYTOIN], the IC50 result (in assay [1]; in assay [2]; in assay [3]; in [4]; on Caspase-1; in assay [5]) was “Not Active” each time. Further, the IC50 result (in assay [6] (cho-k1); in assay [7]; in assay [8] (cho-k1); at Vasopressin V1a receptor) was “Not Active” each time. Also, the Ki result in assay [4] and in [7] was “Not Active” throughout.
Regarding `CNC(=O)Oc1ccc2c(c1)[C@]1(C)CCN(C)[C@@H]1N2C` [PHYSOSTIGMINE], the IC50 entry (in assay [1]; in assay [2]; in [3]; in assay [4]; against Caspase-1; in assay [5]) was “Not Active” in each case. The IC50 result (in [6] (cho-k1); in assay [7]; in [8] (cho-k1); on Vasopressin V1a receptor) was “Not Active” throughout. The inhibition constant (Ki) entry in [4] and in assay [7] was “Not Active” throughout.
In the case of `CN1C(C(=O)Nc2ccccn2)=C(O)c2ccccc2S1(=O)=O` [PIROXICAM], the IC50 result (in assay [1]; in assay [2]; in assay [3]; in assay [4]; against Caspase-1; in assay [5]) was “Not Active” each time. Moreover, the IC50 entry (in assay [6] (cho-k1); in [7]; in assay [8] (cho-k1); at Vasopressin V1a receptor) was “Not Active” in each case. In addition, the Ki result in assay [4] and in assay [7] was “Not Active” in each case.
